These are literature values, as cited in article PMC3372989, “Conformational Differences between Active Angiotensins and Their Inactive Precursors” (Acta Naturae, 2012).

For data set [1] the following is noted: doses needed for immunization (10–50 µg/mouse), even intramuscular and subcutaneous injections. The text has this: The human and mouse angiotensins 1, as well as angiotensins 2 and 3, have identical amino acid sequences. […] Altogether, it makes angiotensins extremely inconvenient immunogens; however, their conjugation with Hsp70, an adjuvant protein from M. tuberculosis, allowed to overcome the immunological tolerance and to eliminate the toxicity. As a result, we ob ...

The conditions of data set [2]: background statement, no reference printed directly at the statement.
A further data set concerns receptors of Ang2. As to conditions: ref [4]. The text has this:
The oft-cited example of the structural differences between peptides found in their protein precursor and peptides in a free state is human angiotensinogen and its metabolites; i.e. , angiotensins 1, 2 and 3. Angiotensin 1 (Ang1) is a prohormone that consists of 10 amino acid residues and is produced from angiotensinogen as a result of the cleavage of the N-terminal peptide. […] Angiotensin 2 (Ang2) differs from angiotensin 1 by the absence of two C-terminal amino acid resi ...

Regarding angiotensin 2, the “fatal outcome on introduction into the body” value in data set [1] was “leads to a fatal outcome”. In addition, in data set [2], the physiological activity entry is listed as “exhibit physiological activity”.
Take angiotensin 1: the physiological activity entry in data set [2] was “exhibits no physiological activity”. Besides, the “binding to the receptors of Ang2” value in the data set with receptors of Ang2 is “incapable of binding to the receptors of Ang2”.
